Here are results for 28 molecules from patent US20070219214A1, “Dual NK2/NK3-antagonists, pharmaceutical compositions comprising them, and processes for their preparation” (Solvay pharmaceuticals GmbH, priority 2006, published 2007).

For test [1], the target named is T1, human NK2-receptor (Homo sapiens, UniProt P21452).
T1 sequence (P21452 1-398): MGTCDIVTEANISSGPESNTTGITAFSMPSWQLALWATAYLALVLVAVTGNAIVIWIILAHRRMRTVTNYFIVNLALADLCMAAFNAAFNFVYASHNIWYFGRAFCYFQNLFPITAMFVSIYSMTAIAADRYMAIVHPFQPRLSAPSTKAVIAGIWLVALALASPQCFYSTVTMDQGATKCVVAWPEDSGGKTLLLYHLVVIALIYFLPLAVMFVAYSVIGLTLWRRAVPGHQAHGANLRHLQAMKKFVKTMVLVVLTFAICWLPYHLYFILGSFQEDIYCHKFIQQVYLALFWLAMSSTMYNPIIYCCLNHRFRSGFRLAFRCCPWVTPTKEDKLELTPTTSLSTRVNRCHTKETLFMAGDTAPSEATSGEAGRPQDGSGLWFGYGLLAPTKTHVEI
The test can be described thus: Functional cellular test, Ca2+ measurements using FLIPR for NK2 activity.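 Note: CHO cells stably expressing the human receptor, loaded with a calcium dye, antagonist inhibition of ligand-evoked intracellular calcium rise read as peak fluorescence change on FLIPR.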

For test [2], the target named is T1, human NK2-receptor. The test can be described thus: Binding potency of the test substances to NK2-receptors in vitro ([3H]-SR 48968 displacement). Also on record: expressed in transfected cells; host or cells: CHO cells (membrane preparation). The following applies: human NK2-receptor in CHO cell membranes, [3H]-SR 48968 (saredutant); average of at least three measurements; read-out: pKi, binding potency to NK2-receptors (converted). An excerpt: 2. Determination of the Binding Potency of the Test Substances to NK2-Receptors in Vitro
The affinity of test compounds for NK2-receptors can be determined by measuring the ability of the test compound to displace a radiolabeled ligand from its specific binding site.
(§1) The radiolabel used in this assay is [^3H]-SR 48968 (saredutant). Receptors were obtained from membrane preparations of CHO-cells (Chinese Hamster Ovary cells), in which the human NK2-receptor was stably expressed. Membranes were incubated with [^3H]-saredutant in the absence or presence of test compounds at different concentrations, diluted in a buffer system. Separation of bound radioactivity from free radioactivity was done by filtration through glass fiber filters (Packard GF/B) with several washings with ice-cold buffer solution. Bound radioactivity was measured with a liquid scintillation counter (total binding). Unspecific binding was determined by incubation with an excess (0.1 μmol/l) of unlabeled saredutant. Specific binding is obtained by subtracting the unspecific binding from the total binding.
Radioactivity of the specific binding was plotted against the concentration of the test compound and IC50 values, i.e. the concentration of test compound by which 50% of the radioligand is displaced, were calculated. The inhibition constant (Ki) was calculated according to the Cheng-Prusoff equation, and listed as its negative logarithmic value (pKi). The pKi value describes the potency of a test compound to bind to a receptor.
(§2) The average result of all measurements is listed above.

For test [3], the target named is T2, human NK3 receptor (Homo sapiens, UniProt P29371).
T2 sequence (P29371 1-465): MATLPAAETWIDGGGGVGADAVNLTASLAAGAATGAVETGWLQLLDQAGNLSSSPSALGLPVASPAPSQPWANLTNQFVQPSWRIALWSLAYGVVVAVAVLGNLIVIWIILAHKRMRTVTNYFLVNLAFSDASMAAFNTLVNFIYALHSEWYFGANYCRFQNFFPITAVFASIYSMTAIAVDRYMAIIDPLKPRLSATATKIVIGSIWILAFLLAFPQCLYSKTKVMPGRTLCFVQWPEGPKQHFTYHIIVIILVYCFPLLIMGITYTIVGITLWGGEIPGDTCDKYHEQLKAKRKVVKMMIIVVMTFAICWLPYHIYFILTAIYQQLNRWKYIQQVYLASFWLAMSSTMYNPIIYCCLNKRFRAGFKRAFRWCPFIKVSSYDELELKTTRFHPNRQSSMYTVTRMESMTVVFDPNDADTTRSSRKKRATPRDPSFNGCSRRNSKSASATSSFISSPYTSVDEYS
Nature of the test: Binding potency of the test substances to NK3-receptors in vitro ([3H]-SR 142801 displacement). Also on record: expressed in transfected cells; host or cells: CHO cells (membrane preparation). To be noted: human NK3-receptor in CHO cell membranes, [3H]-SR 142801 (osanetant); average of at least three measurements; read-out: pKi, binding potency to NK3-receptors (converted).
Text: 3. Determination of the Binding Potency of the Test Substances to NK3-Receptors in Vitro
The affinity of test compounds for NK3-receptors can be determined by measuring the ability of the test compound to displace a radiolabeled ligand from its specific binding site.
as §1, with “142801 (osanetant).” for “48968 (saredutant).”, “NK3-receptor” for “NK2-receptor”, “[^3H]-osanetant” for “[^3H]-saredutant”, “(1” for “(0.1”, “osanetant.” for “saredutant.”
Radioactivity of the specific binding was plotted against the concentration of the test compound and IC50 values, i.e. the concentration of test compound by which 50% of the radioligand is displaced, were calculated. The inhibition constant (Ki) was calculated according to the Cheng-Prusoff equation, and listed as its negative logarithmic value (pKi) The pKi value describes the potency of a test compound to bind to a receptor.
as §2

The target of test [4] is T2, human NK3 receptor. Nature of the test: Functional cellular test, Ca2+ measurements using aequorin for NK3 activity. The format is cell-based. Set-up: expressed in transfected cells; host or cells: cell line co-expressing mitochondrially targeted apoaequorin (CHO according to b76/b77). To be noted: read-out: pA2 data for NK3 (converted).

`CC(=O)N1CCC(C(=O)N(C)CC(CCN2CCC(C(=O)N(C)C)(N3CCCCC3)CC2)c2ccc(Cl)c(Cl)c2)CC1` (stereo not drawn) [compound 52] gave a Kb on human NK2-receptor [1] of 3.98 nM. Moreover, the Ki was 15.8 nM on human NK2-receptor [2] and 12.6 nM at human NK3 receptor [3].
With `CN(C)C(=O)C1(N2CCCCC2)CCN(CCC(CN(C)C(=O)c2ccccn2)c2ccc(Cl)c(Cl)c2)CC1` (stereo not drawn) [compound 43], the Kb at human NK2-receptor [1] is 0.631 nM; on human NK3 receptor [4], 31.6 nM. In addition, the Ki at human NK2-receptor [2] was 0.251 nM; on human NK3 receptor [3] it was 5.01 nM.
Consider `CN(C)C(=O)C1(N2CCCCC2)CCN(CCC(CN(C)C(=O)c2ccc(OC(F)(F)F)cc2)c2ccc(Cl)c(Cl)c2)CC1` (stereo not drawn) [compound 55], for which the Kb was 2 nM at human NK2-receptor [1] and 7.94 nM on human NK3 receptor [4]. Further, the Ki is 6.31 nM at human NK2-receptor [2] and 3.98 nM on human NK3 receptor [3].
For `CN(C)C(=O)C1(N2CCCCC2)CCN(CCC(CN(C)C(=O)C2CCOCC2)c2ccc(Cl)c(Cl)c2)CC1` (stereo not drawn) [compound 53], on human NK3 receptor [3], the Ki is 3.16 nM. Moreover, on human NK3 receptor [4], the Kb is 50.1 nM.
As for `CN(C)C(=O)C1(N2CCCCC2)CCN(CCC(CN(C)C(=O)c2ccc3occc3c2)c2ccc(Cl)c(Cl)c2)CC1` (stereo not drawn) [compound 68], the Kb at human NK2-receptor [1] is 10 nM. Besides, the Ki on human NK2-receptor [2] was 2 nM; at human NK3 receptor [3] it was 10 nM.
`CN(C)C(=O)C1(N2CCCCC2)CCN(CC[C@H](CN(C)C(=O)c2ccccc2)c2ccccc2)CC1` [compound 94, 1′-[(3S)-4-[benzoyl(methyl)amino]-3-phenylbutyl]-N,N-dimethyl-1, 4′-bipiperidine-4′-carboxamide]: at human NK2-receptor [1], the Kb is 1.58 nM. Further, at human NK2-receptor [2], the Ki is 3.16 nM.
Turning to `CN(C)C(=O)C1(N2CCCCC2)CCN(CCC(CN(C)C(=O)Cc2ccccc2)c2ccc(Cl)c(Cl)c2)CC1` (stereo not drawn) [compound 89], the Ki at human NK2-receptor [2] was 12.6 nM; on human NK3 receptor [3], 15.8 nM.
As to `CN(C)C(=O)C1(N2CCCCC2)CCN(CCC(CN(C)C(=O)Cc2cccnc2)c2ccc(Cl)c(Cl)c2)CC1` (stereo not drawn) [compound 50], the Ki at human NK2-receptor [2] was 39.8 nM; at human NK3 receptor [3], 10 nM.
Regarding `CN(C)C(=O)C1(N2CCCCC2)CCN(CCC(CN(C)C(=O)c2cc[n+]([O-])cc2)c2ccc(Cl)c(Cl)c2)CC1` (stereo not drawn) [compound 17], the Kb is 15.8 nM on human NK2-receptor [1] and 126 nM on human NK3 receptor [4]. For the same molecule, the Ki on human NK2-receptor [2] was 31.6 nM.
On to `CN(C)C(=O)C1(N2CCCCC2)CCN(CCC(CN(C)C(=O)c2c(F)c(F)c(F)c(F)c2F)c2ccc(Cl)c(Cl)c2)CC1` (stereo not drawn) [compound 73], for which the Ki was 12.6 nM on human NK2-receptor [2] and 39.8 nM on human NK3 receptor [3].
`Cc1ccccc1C(=O)N(C)CC(CCN1CCC(C(=O)N(C)C)(N2CCCCC2)CC1)c1ccc(Cl)c(Cl)c1` (stereo not drawn) [compound 78]: the Ki was 1.58 nM at human NK2-receptor [2] and 25.1 nM at human NK3 receptor [3].
As to `CN(C)C(=O)C1(N2CCCCC2)CCN(CCC(CN(C)C(=O)c2ccccc2C(=O)O)c2ccc(Cl)c(Cl)c2)CC1` (stereo not drawn) [compound 25], the Ki at human NK2-receptor [2] is 5.01 nM; on human NK3 receptor [3] it was 63.1 nM.
With `CN(C)C(=O)C1(N2CCCCC2)CCN(CCC(CN(C)C(=O)c2cccn2C)c2ccc(Cl)c(Cl)c2)CC1` (stereo not drawn) [compound 30], the Ki was 2.51 nM on human NK2-receptor [2] and 20 nM at human NK3 receptor [3].
In the same order, the values of `CN(C)C(=O)C1(N2CCCCC2)CCN(CCC(CN(C)C(=O)c2ccc3c(c2)OC(F)(F)O3)c2ccc(Cl)c(Cl)c2)CC1` (stereo not drawn) [compound 63] are 3.98 nM and 20 nM.
The matching figures for `CN(C)C(=O)C1(N2CCCCC2)CCN(CCC(CN(C)C(=O)Cc2ccccn2)c2ccc(Cl)c(Cl)c2)CC1` (stereo not drawn) [compound 49]: 10 nM and 7.94 nM.
With `CN(C)C(=O)C1(N2CCCCC2)CCN(CCC(CN(C)C(=O)c2ccc(Cl)cc2)c2ccc(Cl)c(Cl)c2)CC1` (stereo not drawn) [compound 84], the Ki is 12.6 nM on human NK2-receptor [2] and 39.8 nM at human NK3 receptor [3].
On to `CN(C)C(=O)C1(N2CCCCC2)CCN(CCC(CN(C)C(=O)c2c(F)cccc2F)c2ccc(Cl)c(Cl)c2)CC1` (stereo not drawn) [compound 74], for which the values for the Ki at human NK2-receptor [2] and on human NK3 receptor [3] were 3.98 nM and 25.1 nM, respectively.
In the case of `CN(C)C(=O)C1(N2CCCCC2)CCN(CCC(CN(C)C(=O)Cc2c[nH]c3ccccc23)c2ccc(Cl)c(Cl)c2)CC1` (stereo not drawn) [compound 40], the values for the Ki at human NK2-receptor [2] and on human NK3 receptor [3] were 12.6 nM and 63.1 nM, respectively.
For the molecule `CN(C)C(=O)C1(N2CCCCC2)CCN(CCC(CN(C)C(=O)c2cc[nH]c2)c2ccc(Cl)c(Cl)c2)CC1` (stereo not drawn) [compound 64], the Ki is 12.6 nM on human NK2-receptor [2] and 79.4 nM at human NK3 receptor [3].
For `CN(C)C(=O)C1(N2CCCCC2)CCN(CCC(CN(C)C(=O)c2ccc3cc[nH]c3c2)c2ccc(Cl)c(Cl)c2)CC1` (stereo not drawn) [compound 41], the values for the Ki on human NK2-receptor [2] and at human NK3 receptor [3] were 3.16 nM and 15.8 nM, respectively.
The matching figures for `CN(C)C(=O)C1(N2CCCCC2)CCN(CCC(CN(C)C(=O)C2CC2)c2ccc(Cl)c(Cl)c2)CC1` (stereo not drawn) [compound 22]: 15.8 nM and 50.1 nM.
Consider `CN(C)C(=O)C1(N2CCCCC2)CCN(CCC(CN(C)C(=O)c2ccsc2)c2ccc(Cl)c(Cl)c2)CC1` (stereo not drawn) [compound 38], for which the Ki was 1.58 nM on human NK2-receptor [2] and 25.1 nM on human NK3 receptor [3].
For `CN(C)C(=O)C1(N2CCCCC2)CCN(CCC(CN(C)C(=O)c2cccc(F)c2)c2ccc(Cl)c(Cl)c2)CC1` (stereo not drawn) [compound 79], the Ki at human NK2-receptor [2] is 2 nM; on human NK3 receptor [3], 20 nM.
In the same order, the values of `CN(C)C(=O)C1(N2CCCCC2)CCN(CCC(CN(C)C(=O)c2ccco2)c2ccc(Cl)c(Cl)c2)CC1` (stereo not drawn) [compound 31] are 3.98 nM and 39.8 nM.
For `CN(C)C(=O)C1(N2CCCCC2)CCN(CCC(CN(C)C(=O)c2ccccc2Br)c2ccc(Cl)c(Cl)c2)CC1` (stereo not drawn) [compound 71], the Ki on human NK2-receptor [2] was 5.01 nM; on human NK3 receptor [3], 39.8 nM.
Regarding `Cc1ccc(C(=O)N(C)CC(CCN2CCC(C(=O)N(C)C)(N3CCCCC3)CC2)c2ccc(Cl)c(Cl)c2)cc1` (stereo not drawn) [compound 87], the Ki at human NK2-receptor [2] was 7.94 nM; on human NK3 receptor [3], 39.8 nM.
`CN(C)C(=O)C1(N2CCCCC2)CCN(CCC(CN(C)C(=O)c2cc3ccccc3[nH]2)c2ccc(Cl)c(Cl)c2)CC1` (stereo not drawn) [compound 39]: the Ki at human NK2-receptor [2] is 20 nM; at human NK3 receptor [3] it was 31.6 nM.
The matching figures for `CN(C)C(=O)C1(N2CCCCC2)CCN(CCC(CN(C)C(=O)c2ccc3ccccc3c2)c2ccc(Cl)c(Cl)c2)CC1` (stereo not drawn) [compound 32]: 15.8 nM and 39.8 nM.
